In ChEMBL document CHEMBL4393657, “Tetrazole hybrids and their antifungal activities” (2019):
≈ marks a conversion by molar mass, not a printed value.

Experiments:
Format in all cases: functional
Aspergillus flavus [1] = experiment: Antifungal activity against Aspergillus flavus assessed as inhibition zone at 25 ug/ml by disk diffusion method; settings: read-out: IZ
Candida albicans [2] = experiment: Antifungal activity against Candida albicans assessed as inhibition zone at 25 ug/ml by disk diffusion method; settings: read-out: IZ
Aspergillus fumigatus = experiment: Antifungal activity against Aspergillus fumigatus assessed as inhibition zone at 25 ug/ml by disk diffusion method; settings: read-out: IZ
Aspergillus niger [3] = experiment: Antifungal activity against Aspergillus niger assessed as inhibition zone at 25 ug/ml by disk diffusion method; settings: read-out: IZ
Candida albicans [4] = experiment: Antifungal activity against Candida albicans NCCS 3471 assessed as inhibition zone at 500 ug/ml by disk diffusion method; settings: read-out: IZ
Aspergillus niger [5] = experiment: Antifungal activity against Aspergillus niger NCCS 1196 assessed as inhibition zone at 500 ug/ml by disk diffusion method; settings: read-out: IZ
Candida albicans [6] = experiment: Antifungal activity against Candida albicans assessed as reduction in fungal cell growth incubated for 24 hrs by broth microdilution method
Aspergillus flavus [7] = experiment: Antifungal activity against Aspergillus flavus
Rhizopus arrhizus = experiment: Antifungal activity against Rhizopus arrhizus
Mucor indicus = experiment: Antifungal activity against Mucor indicus
Candida albicans [8] = experiment: Antifungal activity against Candida albicans
Aspergillus niger [9] = experiment: Antifungal activity against Aspergillus niger
Candida albicans [10] = experiment: Antifungal activity against Candida albicans ATCC 885653 assessed as inhibition zone at 100 ug/ml incubated for 48 to 72 hrs by agar-diffusion method; settings: read-out: IZ

Structure (SMILES)	zone of inhibition at 25 µg/mL (Aspergillus flavus [1]) [mm]	zone of inhibition at 25 µg/mL (Candida albicans [2]) [mm]	zone of inhibition at 25 µg/mL (Aspergillus fumigatus) [mm]	zone of inhibition at 25 µg/mL (Aspergillus niger [3]) [mm]	zone of inhibition at 500 µg/mL (Candida albicans [4]) [mm]	zone of inhibition at 500 µg/mL (Aspergillus niger [5]) [mm]	also measured
Cc1ccccc1OCc1cn(Cc2ccc(-c3ccccc3-c3nnn[nH]3)cc2)nn1	11 to 18	11 to 18	11 to 18	11 to 18	–	–	–
CC(=O)N1N=C(Cn2cc(-c3nn(-c4ccncc4)cc3-c3nnnn3-c3ccc(C(F)(F)F)cc3)c3cc(Cl)ccc32)OC1(C)c1ccc(Br)cc1 (stereo unspecified)	–	–	–	–	11 to 20	11 to 20	–
C[C@@H]1[C@H](O)[C@@H](C)/C=C/C=C/C=C/C=C/C=C/C=C/C=C/[C@H](O[C@@H]2O[C@H](C)[C@@H](O)[C@H](N)[C@@H]2O)C[C@@H]2O[C@](O)(C[C@@H](O)C[C@@H](O)[C@H](O)CC[C@@H](O)C[C@@H](O)CC(=O)O[C@H]1C)C[C@H](O)[C@H]2C(=O)O [AMPHOTERICIN B]	–	–	–	–	–	–	MIC (Candida albicans [6]): < 0.48 µg/mL
CC(=O)N1N=C(Cn2cc(-c3nn(-c4ccncc4)cc3-c3nnnn3-c3ccc(C(F)(F)F)cc3)c3cc(Cl)ccc32)OC1(C)c1ccc(Cl)cc1 (stereo unspecified)	–	–	–	–	11 to 20	11 to 20	–
O=C(O)c1cn(C2CC2)c2nc(N3CCN(CC(=O)c4nnnn4-c4ccc([N+](=O)[O-])cc4)CC3)c(F)cc2c1=O	–	–	–	–	–	–	MIC (Aspergillus flavus [7]): 6.25 to 100 µg/mL (≈ 11.1 to 177 µM); MIC (Rhizopus arrhizus): 6.25 to 100 µg/mL (≈ 11.1 to 177 µM); MIC (Mucor indicus): 6.25 to 100 µg/mL (≈ 11.1 to 177 µM); MIC (Candida albicans [8]): 6.25 to 100 µg/mL (≈ 11.1 to 177 µM); MIC (Aspergillus niger [9]): 6.25 µg/mL (≈ 11.1 µM)
Clc1ccccc1OCc1cn(Cc2ccc(-c3ccccc3-c3nnn[nH]3)cc2)nn1	11 to 18	11 to 18	11 to 18	11 to 18	–	–	–
c1ccc(OCc2cn(Cc3ccc(-c4ccccc4-c4nnn[nH]4)cc3)nn2)cc1	11 to 18	11 to 18	11 to 18	11 to 18	–	–	–
CC(=O)N1N=C(Cn2cc(-c3nn(-c4ccncc4)cc3-c3nnnn3-c3ccc(C(F)(F)F)cc3)c3cc(Cl)ccc32)OC1(C)c1ccc([N+](=O)[O-])cc1 (stereo unspecified)	–	–	–	–	11 to 20	11 to 20	–
CC(=O)N1N=C(Cn2cc(-c3nn(-c4ccncc4)cc3-c3nnnn3-c3ccc(C(F)(F)F)cc3)c3cc(Cl)ccc32)OC1(C)c1ccc(C(F)(F)F)cc1 (stereo unspecified)	–	–	–	–	11 to 20	11 to 20	–
O=[N+]([O-])c1ccc(OCc2cn(Cc3ccc(-c4ccccc4-c4nnn[nH]4)cc3)nn2)cc1	11 to 18	11 to 18	11 to 18	11 to 18	–	–	–
Cc1cccc(OCc2cn(Cc3ccc(-c4ccccc4-c4nnn[nH]4)cc3)nn2)c1	11 to 18	11 to 18	11 to 18	11 to 18	–	–	–
Clc1ccc(OCc2cn(Cc3ccc(-c4ccccc4-c4nnn[nH]4)cc3)nn2)cc1	11 to 18	11 to 18	11 to 18	11 to 18	–	–	–
Cc1ccc(C(=O)CSc2nc3ccccc3c3nnnn23)cc1	–	–	–	–	–	–	zone of inhibition at 100 µg/mL (Candida albicans [10]): 6 to 22 mm
Cc1ccc(OCc2cn(Cc3ccc(-c4ccccc4-c4nnn[nH]4)cc3)nn2)cc1	11 to 18	11 to 18	11 to 18	11 to 18	–	–	–
CC(=O)N1N=C(Cn2cc(-c3nn(-c4ccncc4)cc3-c3nnnn3-c3ccc(C(F)(F)F)cc3)c3cc(Cl)ccc32)OC1(C)c1ccc(C)cc1 (stereo unspecified)	–	–	–	–	11 to 20	11 to 20	–
CC(=O)N1N=C(Cn2cc(-c3nn(-c4ccncc4)cc3-c3nnnn3-c3ccc(C(F)(F)F)cc3)c3cc(Cl)ccc32)OC1(C)c1ccccc1 (stereo unspecified)	–	–	–	–	11 to 20	11 to 20	–
CC(C)NCCSc1nc2ccccc2c2nnnn12	–	–	–	–	–	–	zone of inhibition at 100 µg/mL (Candida albicans [10]): 6 to 22 mm
COc1ccc(C2(C)OC(Cn3cc(-c4nn(-c5ccncc5)cc4-c4nnnn4-c4ccc(C(F)(F)F)cc4)c4cc(Cl)ccc43)=NN2C(C)=O)cc1 (stereo unspecified)	–	–	–	–	11 to 20	11 to 20	–
FC(F)(F)c1cc(-c2ccc(Br)cc2)nc2nnnn12	–	–	–	–	–	–	MIC (Candida albicans [6]): 62.5 µg/mL (≈ 182 µM)
